Source: patent US8906826B2, “Herbicidal compositions comprising 4-amino-3-chloro-5-fluoro-6-(4-chloro-2-fluoro-3-methoxyphenyl) pyridine-2-carboxylic acid or a derivative thereof and imidazolinones” (Dow AgroSciences, LLC, priority 2012, dated 2014)

What was measured:
[1] = test system: LEFCH; assay: In-water applied, transplanted paddy rice weeds (Example II); format: in vivo, Leptochloa chinensis (L.) Nees
Description: Weed seeds or nutlets of the desired test plant species were planted in puddled soil (mud) prepared by mixing a shredded, non-sterilized mineral soil (50.5 percent silt, 25.5 percent clay, and 24 percent sand, with a pH of about 7.6 and an organic matter content of about 2.9 percent) and water at a 1:1 volumetric ratio. The prepared mud was dispensed in 365 mL aliquots into 16-ounce (oz.) non-perforated plastic pots with a surface area of 86.59 square centimeters (cm^2) leaving a headspace of 3 centimeters (cm) in each pot. Mud was allowed to dry overnight prior to planting or transplanting. Rice seeds were planted in Sun Gro MetroMix® 306 planting mixture, which typically has a pH of about 6.0 to about 6.8 and an organic matter content of about 30 percent, in plastic plug trays. Seedlings at the second or third leaf stage of growth were transplanted into 860 mL of mud contained in 32-oz. non-perforated plastic pots with a surface area of 86.59 cm^2 4 days prior to herbicide application. The paddy was created by filling the headspace of the pots with 2.5 to 3 cm of water. When required to ensure good germination and healthy plants, a fungicide treatment and/or other chemical or physical treatment was applied. The plants were grown for 4-22 days in a greenhouse with an approximate 14 h photoperiod which was maintained at about 29° C. during the day and about 26° C. during the night. Nutrients were added as Osmocote® (19:6:12, N:P:K+minor nutrients) at 2 g per 16-oz. pot and 4 g per 32-oz. pot. Water was added on a regular basis to maintain the paddy flood, and supplemental lighting was provided with overhead metal halide 1000-Watt lamps as necessary. The plants were employed for testing when they reached the first through fourth true leaf stage.
Treatments consisted of the acid or esters of 4-amino-3-chloro-5-fluoro-6-(4-chloro-2-fluoro-3-methoxy-phenyl)pyridine-2-carboxylic acid (compound A) each formulated as an SC and various herbicidal components alone and in combination. Forms of compound A were applied on an acid equivalent basis. […]
Treatment requirements for each compound or herbicidal component were calculated based upon the rates being tested, the concentration of active ingredient or acid equivalent in the formulation, an application volume of 2 mL per component per pot, and an application area of 86.59 cm^2 per pot.
For formulated compounds, a measured amount was placed in an individual 100 or 200 mL glass vial and was dissolved in a volume of 1.25% (v/v) Agri-Dex® crop oil concentrate to obtain application solutions. […]

[2] = test system: ECHCO; assay: Postemergence foliar-applied, direct seeded rice weeds (Example I); format: in vivo, Echinochloa colona (L.) Link
From the text: Seeds or nutlets of the desired test plant species were planted in a soil matrix prepared by mixing a loam or sandy loam soil (e.g., 28.6 percent silt, 18.8 percent clay, and 52.6 percent sand, with a pH of about 5.8 and an organic matter content of about 1.8 percent) and calcareous grit in an 80 to 20 ratio. The soil matrix was contained in plastic pots with a volume of 1 quart and a surface area of 83.6 cm^2. When required to ensure good germination and healthy plants, a fungicide treatment and/or other chemical or physical treatment was applied. The plants were grown for 8-22 days in a greenhouse with an approximate 14 h photoperiod which was maintained at about 29° C. during the day and 26° C. during the night. Nutrients (Peters Excel® 15-5-15 5-Ca 2-Mg and iron chelate) were applied in the irrigation solution as needed and water was added on a regular basis. Supplemental lighting was provided with overhead metal halide 1000-Watt lamps as necessary. The plants were employed for testing when they reached the first through fourth true leaf stage.
Treatments consisted of the acid or esters of 4-amino-3-chloro-5-fluoro-6-(4-chloro-2-fluoro-3-methoxy-phenyl)pyridine-2-carboxylic acid (Compound A), each formulated as an SC (suspension concentrate), and various herbicidal components alone and in combination. Forms of compound A were applied on an acid equivalent basis.
Other herbicidal components were applied on an acid equivalent basis and include acetolactate synthase (ALS)-inhibiting herbicides (imidazolinone chemical class) imazethapyr ammonium salt formulated as Newpath®, imazamox ammonium salt formulated as Beyond®, imazapic ammonium salt formulated as Plateau®, imazapyr isopropylamine salt formulated as Arsenal®, imazamethabenz-methyl (technical material) and imazaquin isopropylamine salt formulated as Scepter®/Imagine®.
Treatment requirements were calculated based upon the rates being tested, the concentration of active ingredient or acid equivalent in the formulation, and a 12 mL application volume at a rate of 187 L/ha.
For treatments comprised of formulated compounds, measured amounts of compounds were placed individually in 25 mL glass vials and diluted in a volume of 1.25% (v/v) Agri-Dex® crop oil concentrated to obtain 12× stock solutions. […]
For treatments comprised of formulated and technical compounds, weighed amounts of the technical materials were placed individually in 25 mL glass vials and dissolved in a volume of 97:3 v/v acetone/DMSO to obtain 12× stock solutions, and measured amounts of the formulated compounds were placed individually in 25 mL glass vials and diluted in a volume of 1.5% (v/v) crop oil concentrate or water to obtain 12× stock solutions. […]

CCc1cnc(C2=NC(C)(C(C)C)C(=O)N2)c(C(=O)O)c1.N (racemic) [Imazethapyr ammonium, ammonium (±)-2-[4,5-dihydro-4-methyl-4-(1-methylethyl)-5-oxo-1H-imidazol-2-yl]-5-ethyl-3-pyridinecarboxylate]
Visual Weed Control (%) - 25 DAA LEFCH Obs ([1]; Imazethapyr ammonium 8.75 gae/ha): 0% | Visual Weed Control (%) - 25 DAA LEFCH Obs ([1]; Imazethapyr ammonium 17.5 gae/ha): 0% | Visual Weed Control (%) - 25 DAA LEFCH Obs ([1]; Imazethapyr ammonium 35 gae/ha): 95%

Cc1cnc(C2=NC(C)(C(C)C)C(=O)N2)c(C(=O)O)c1.N (racemic) [Imazapic ammonium, ammonium (±)-2-[4,5-dihydro-4-methyl-4-(1-methylethyl)-5-oxo-1H-imidazol-2-yl]-5-methyl-3-pyridinecarboxylic acid]
Visual Weed Control (%) - 25 DAA ECHCO Obs ([2]; Imazapic ammonium 17.5 gae/ha): 70%

COc1c(Cl)ccc(-c2nc(C(=O)O)c(Cl)c(N)c2F)c1F [Compound A Acid, 4-amino-3-chloro-6-(4-chloro-2-fluoro-3-methoxyphenyl)-5-fluoropyridine-2-carboxylic acid]
Visual Weed Control (%) - 25 DAA ECHCO Obs ([2]; Compound A Acid 4.38 gae/ha): 60% | Visual Weed Control (%) - 25 DAA ECHCO Obs ([2]; Compound A Acid 8.75 gae/ha): 65% | Visual Weed Control (%) - 25 DAA ECHCO Obs ([2]; Compound A Acid 17.5 gae/ha): 90%

COc1c(Cl)ccc(-c2nc(C(=O)OCc3ccccc3)c(Cl)c(N)c2F)c1F [Compound A Benzyl Ester, benzyl ester of 4-amino-3-chloro-5-fluoro-6-(4-chloro-2-fluoro-3-methoxy-phenyl)pyridine-2-carboxylic acid]
Visual Weed Control (%) - 25 DAA LEFCH Obs ([1]; Compound A Benzyl Ester 8.75 gae/ha): 0%
